Assay results from patent US7030087B2, “Synthetic approach to designed chemical structures” (priority 1996, dated 2006).

Key:
[1] = test system: ICAM-1; test: ICAM-1 expression on endothelial cells (immunofluorescence, FACScan); format: cell-based, human
Procedure: In a first series of experiments, PF4 and βpep peptides were tested for their ability to prevent bFGF (fibroblast growth factor) mediated downregulation of ICAM-1. […] Simultaneously 100 μg/ml of each PF4, βpep-14, βpep-16, or medium was added. Mean ICAM-1 fluorescence intensity values were determined.
(§1) Since the in vivo situation of tumor associated EC involves the low expression or even absence of ICAM-1, the next set of experiments aimed to study the ability to reinduce ICAM-I expression after bFBF preincubation. […] In these experiments, HUVEC were pretreated for 3 days with bFGF, subsequently PF4 was added for 3 days and, where indicated in the last 16 hours of culture 4 ng/ml TNFα was added. Human umbilical vein derived endothelial cells (HUVEC) were harvested from normal human umbilical cords by perfusion with 0.125% trypsin/EDTA as described previously. Cells were cultured in fibronectin (FN) coated tissue culture flasks in culture medium (RPMI-1640 with 20% human serum (HS), supplemented with 2 mM glutamine and 100 U/ml penicillin and 0.1 mg/ml streptomycin). Immunofluorescence using indirect PE-conjugated reagents required three separate incubations. 1×10^5 EC were fixed for 1 hour in 1% paraformaldehyde, resuspended in 20 μl appropriately diluted Mab and incubated for 1 hour on ice. Subsequently, cells were washed two times in PBS/BSA (0.1%) and incubated for another 30 minutes with biotinylated rabbit-anti-mouse Ig (Dako, Glostrup, Denmark). After another 2 washings, cells were incubated with streptavidin-phycoerythrin conjugate (Dako). Stained cells were analyzed on a FACScan flowcytometer. Data analysis was performed using PCLysys software (Becton Dickinson, Mountain View, Calif.). Statistical significance of observed differences was determined using the Student's t-test.
The energy of EC to stimulation with inflammatory cytokines was the subject of a next series of experiments. For these experiments, HUVEC (human vascular endothelial cells) were pretreated with 10 ng/ml bFGF for 3 days. Subsequently, cells are subcultured for 3 days with […] in the presence of PF4. For the last 16 hours of the culture 4 ng/ml TNFα was added to induce upregulation of ICAM-1. […] The regulation of ICAM-1 at the protein level was confirmed in Northern blot analysis for detection of ICAM-1 message. In these experiments, HUVEC were cultured for 3 days with bFGF and treated for the last 4 and 24 hours with PF4 (100 μg/ml). TNFα was added 2 hours before isolation of RNA. RNA from a subconfluent EC cultures (75 cm^2 Petri-dishes) incubated with bFGF for different time-points was isolated using an RNA-zol kit (Campro Scientific, Houston, Tex.). Total RNA (10 μg) for each sample was separated in a 0.8% formaldehyde-denaturing gel, transferred to nitrocellulose (Hybond N+, Amersham International, Amersham, UK) and hybridized to a ^32P-labelled 1.9 Kb c-DNA probe, containing the functional sequence of the human ICAM-1 gene (a gift from Dr. B. Seed). Membranes were washed at a high stringency in 0.2×SSC, 0.1% SDS at 50° C. for 1 hour. Filters were exposed to X-ray films (Kodak X-omat, Eastman Kodak Company, Rochester, N.Y.) using an intensifying screen at −80° C. for not less than 12 hr. Autoradiograms were subjected to scanning using a laser densitometer (Model GS670, Bio-Rad, Hercules, Calif.) and data were analysed with the Molecular Analyst PC™ software. The intensity of the major ICAM-1 mRNA transcript was normalized with respect to actin mRNA expression used as a control.

[2] = test system: EC (endothelial cells); test: EC proliferation, 3[H]thymidine incorporation assay; format: cell-based
Procedure: as §1
EC proliferation was measured using a ^3[H]thymidine incorporation assay. EC were seeded in flatbottomed 96-well tissue culture plates (5000 cells/well) and grown for 3 days, in culture medium. In some cultures the proliferation of EC was enhanced by incubation with 10 ng/ml bFGF. During the list 6 hours of the assay, the culture was pulsed with 0.5 μCi [methyl-^3H]thymidine/well. Results are expressed as the arithmetic mean counts per minute (cpm) of triplicate cultures.

Molecule: interferon-γ inducible protein-10 [IP-10]
- effect of other inhibitors of angiogenesis on ICAM-1 expression (in words) [1]: same results
- (3H)-thymidine incorporation ([2]; expt 3, 100 μg/ml, 10 ng/ml bFGF, medium 3432 ± 232): 725 ± 95 cpm

Molecule: O=C1CCC(N2C(=O)c3ccccc3C2=O)C(=O)N1 (stereo not drawn) [thalidomide, reference compound]
- effect of other inhibitors of angiogenesis on ICAM-1 expression (in words) [1]: did not affect ICAM-1 expression
- EC growth in vitro (in words) [2]: do not affect EC growth in vitro

Molecule: thrombospondin-1 [TSP-1]
- effect of other inhibitors of angiogenesis on ICAM-1 expression (in words) [1]: same results
- (3H)-thymidine incorporation ([2]; expt 4, 10 μg/ml, 10 ng/ml bFGF, medium 31954 ± 1220): 22338 ± 860 cpm
- (3H)-thymidine incorporation ([2]; expt 4, 10 μg/ml, no bFGF, medium 18904 ± 1501): 8865 ± 639 cpm
- (3H)-thymidine incorporation ([2]; expt 4, 25 μg/ml, 10 ng/ml bFGF, medium 31954 ± 1220): 10267 ± 797 cpm
- (3H)-thymidine incorporation ([2]; expt 4, 25 μg/ml, no bFGF, medium 18904 ± 1501): 5565 ± 349 cpm
